{"source": "a melting point compilation (Tetko et al.; mined from patent text by program, amines drawn as free bases though some values may be those of a salt)"}
{"units": {"melting point": "°C"}}
{"molecule": "CN1CCN(c2cc3c(cc2F)c(=O)n(O)c(=O)n3-c2ccc(F)c(Cl)c2)CC1", "melting point": "197 to 199"}
{"molecule": "CCCOc1ccc(S(=O)(=O)NC[C@@H](C(=O)NO)N2CCN(S(C)(=O)=O)CC2)cc1", "melting point": 137}
{"molecule": "CCOC(=O)CCC(CCCCNS(=O)(=O)c1ccc(Cl)cc1)CCOc1cccnc1", "note": "(stereo unspecified)", "melting point": "90 to 93"}
{"molecule": "O=c1nc(-c2cccc(-n3cccn3)n2)sc2ccccc12", "melting point": "253 to 254"}
{"molecule": "CN1CCN(Cc2ccccc2C(F)(F)F)C(C2=NCCN2)C1", "note": "(stereo unspecified)", "melting point": "163 to 165"}
{"molecule": "CC(C)(C)OC(=O)N1CCC[C@@H]1Cc1cccc2ccc(N)cc12", "melting point": "157 to 158"}
{"molecule": "CN1C(=O)CC[C@]2(C)c3ccc(Sc4nc5cc([N+](=O)[O-])ccc5s4)cc3CC[C@@H]12", "melting point": "96 to 100"}
{"molecule": "CC(C)C(=O)NCCCCn1c(CO)nc2c(N)nc3ccccc3c21", "melting point": "222 to 224"}
{"molecule": "CC(CC(Sc1cc(C(C)(C)C)c(O)c(C(C)(C)C)c1)Sc1cc(C(C)(C)C)c(O)c(C(C)(C)C)c1)Sc1cc(C(C)(C)C)c(O)c(C(C)(C)C)c1", "note": "(stereo unspecified)", "melting point": "125 to 126"}
{"molecule": "O=c1c(Cc2ccncc2)c(-c2ccc(F)cc2)[nH]c2ccccc12", "melting point": "144 to 146"}
{"molecule": "O=C1NC(=S)SC1=Cc1ccc2c(c1)N(OCc1ccccc1)C(=O)CO2", "melting point": "> 300"}
{"molecule": "C=C(C)OC(=O)N1c2cc(Cl)ccc2NC(=S)[C@@H]1C", "melting point": "148 to 150"}
{"molecule": "Cc1cc(=O)n(-c2cc(OC(C)C)c(Cl)cc2F)c(=O)n1C", "melting point": "149 to 151"}
{"molecule": "CC1CC2C3CCC4=CC(=O)C=CC4(C)C3=CCC2(C)C1C(=O)CN1CCN(c2cc(NCC(C)(C)C)nc(NCC(C)(C)C)n2)CC1", "note": "(stereo unspecified)", "melting point": "140 to 150"}
{"molecule": "COc1ccc(C[C@@H](NC(=O)c2ccc(F)c3ccccc23)[C@@H](O)c2ccc(F)cc2)cc1", "note": "(racemic)", "melting point": "210 to 211"}
{"molecule": "Cc1nc2cc(CCCN3C(=O)c4ccccc4C3=O)ccc2s1", "melting point": 126}
{"molecule": "Cc1cccc(C(O)c2ocnc2C)c1", "note": "(stereo unspecified)", "melting point": "76.5 to 77.5"}
{"molecule": "c1ccc(Nc2nnc(-c3cccnc3)s2)cc1", "melting point": "252 to 255"}
{"molecule": "Cc1cncc(CN2CCC(=C3c4ccc(Cl)cc4CCc4cccnc43)CC2)c1", "melting point": "58 to 61"}
{"molecule": "CCS(=O)(=O)Nc1cc2occc(=O)c2cc1Oc1ccccc1", "melting point": "216 to 218"}
{"molecule": "ClCCCOc1ccc(-c2nccs2)cc1", "melting point": "72 to 75"}
{"molecule": "Nc1c(Cl)cc(C(=O)Cl)cc1Cl", "melting point": 165}
{"molecule": "CCC(=O)OC1CCC2C3CCC4=CC(=O)CCC4(C=O)C3CCC12C", "note": "(stereo unspecified)", "melting point": "119 to 121"}
{"molecule": "CCOC(=O)c1ccc2c(C=C[N+](=O)[O-])c[nH]c2c1", "melting point": 241}
{"molecule": "COc1ccccc1COC(=O)c1ncn2c1[C@@H]1CCCN1C(=O)c1c(Cl)cccc1-2", "melting point": "178 to 179"}
{"molecule": "Clc1ccc2c(C3CCN(CCCOc4cccc5[nH]ccc45)CC3)c[nH]c2c1Cl", "melting point": "160 to 165"}
{"molecule": "COc1ccc(C(=O)Nc2ccc(-c3ccc(S(C)=O)cc3)cc2)cc1CCCN(C)C", "note": "(stereo unspecified)", "melting point": "190 to 192"}
{"molecule": "COc1cc2c(cc1Nc1ncc(Cl)c(Nc3ccc(N4CCOCC4)cc3OC)n1)CCN(CCNC(C)=O)CC2", "melting point": "50 to 65"}
{"molecule": "COc1cc(N2CCN(C)CC2)ccc1-c1cnn2c(N)c(-c3cccc(Cl)c3)c(C)nc12", "melting point": "174 to 178"}
{"molecule": "Cc1ncc2c(C#N)c(-c3ccc(S(=O)(=O)N[C@@H](C)C4CC4)cn3)n(C3CCC3)c2n1", "melting point": "155 to 157"}
{"molecule": "O=c1[nH]c2scnc2c2ccccc12", "melting point": "> 200"}
{"molecule": "CCOC(=O)C(=NOCCI)c1csc(NC(c2ccccc2)(c2ccccc2)c2ccccc2)n1", "melting point": 110}
{"molecule": "Cc1cc(-n2ccnc2)c2cccc(OCc3c(Cl)ccc(S(=O)(=O)N4CCC[C@H]4C(=O)N(C)CCN(C)CCCCO)c3Cl)c2n1", "melting point": 84}
{"molecule": "CC(C)(C(=O)O)c1ccc(Br)c([N+](=O)[O-])c1", "melting point": "167 to 171"}
{"molecule": "C[C@@H](n1cnc2cc(Br)ccc2c1=O)[C@](O)(Cn1cncn1)c1ccc(F)cc1F", "melting point": "109 to 112"}
{"molecule": "NS(=O)(=O)c1ccc(-c2cnn(Cc3ccc(F)cc3)c(=O)c2-c2ccc(F)cc2)cc1", "melting point": "237 to 239"}
{"molecule": "CC(C)(C)c1ccc(S(=O)(=O)N2c3ccccc3C[C@H]2C(=O)Cl)cc1", "melting point": 148}
{"molecule": "OC(CCCN1CCN(c2ncc(F)cn2)CC1)(c1ccc(F)cc1)C1CCCCC1", "note": "(stereo unspecified)", "melting point": "53 to 59"}
{"molecule": "CC1C=C(c2nc3cccc(F)c3s2)C=CC1=N", "note": "(stereo unspecified)", "melting point": "175 to 177"}
{"molecule": "CNc1cncc(C(=O)O)c1", "melting point": "239 to 242"}
{"molecule": "Cn1cncc1S(=O)(=O)O", "melting point": "286 to 287"}
{"molecule": "COc1ccc(-c2cc3ncccc3c(O)n2)cc1", "melting point": "295 to 298"}
{"molecule": "CC(=O)CCC(=O)N1CC1C#N", "note": "(stereo unspecified)", "melting point": "93 to 94"}
{"molecule": "O=C(Cc1ccccc1)c1ccc(Cl)c(Cl)c1", "melting point": "84 to 85"}
{"molecule": "OCC(Oc1ccc(-c2ccccc2)cc1)c1ccccc1", "note": "(stereo unspecified)", "melting point": "126 to 127"}
{"molecule": "CNC(=O)NC(=O)C(CC1CCCC1)c1ccc(-c2cccc3ccccc23)cc1", "note": "(stereo unspecified)", "melting point": "85 to 88"}
{"molecule": "O=S1(=O)Nc2cccc3c2N1CCC3", "melting point": 96}
{"molecule": "COc1cccc(Cc2nnc(NCCSCc3nccs3)[nH]c2=O)c1", "melting point": "128 to 129"}
{"molecule": "COc1ccc(-c2c(Cl)c(CN3CCCCC3=O)nc3sc4c(c23)CCN(Cc2ccccc2)C4)cc1OC", "melting point": "113 to 114"}
{"molecule": "CC1(C)Oc2ccc(C#N)cc2[C@@H](NC(=NC#N)N2CCCC2)[C@@H]1O", "note": "(relative stereo)", "melting point": "263 to 264"}
{"molecule": "CCOC(=O)c1c(OCC)cc(C(F)(F)F)nc1C(F)(F)F", "melting point": "57 to 59"}
{"molecule": "CSc1c(Cl)c(-c2cc(SC(C)C(=O)O)c(Cl)cc2Cl)nn1C", "note": "(stereo unspecified)", "melting point": 180}
{"molecule": "Cc1nc(N2CCN(CC3CC3)C2=O)sc1C(=O)NCc1ncccc1F", "melting point": "142 to 144"}
{"molecule": "CC(C)(C)c1ccc(S(=O)(=O)NC(=O)C(Oc2ccc3c(c2)C(=O)NC3=O)c2ccc3c(c2)OCO3)cc1", "note": "(stereo unspecified)", "melting point": 215}
{"molecule": "COc1ccc2[nH]c(C(=O)C34CC5CC(CC(C5)C3)C4)cc2c1", "melting point": "229 to 231"}
{"molecule": "CN(c1cccc2cc(C3=NCCS3)[nH]c12)S(=O)(=O)c1cccs1", "melting point": "192 to 193"}
{"molecule": "O=C1Nc2ccccc2N(C(=O)N2CCCC(CCCN3CCCCC3)C2)c2ncccc21", "note": "(stereo unspecified)", "melting point": "166 to 167"}
{"molecule": "CC(NC(=O)C(CS)C(C)c1ccc(O)cc1)C(=O)O", "note": "(stereo unspecified)", "melting point": 72}
{"molecule": "CCOC(=O)c1nc2ccc(N)cc2c(O)c1C(=O)OCC", "melting point": "219 to 221"}
{"molecule": "COc1cc2c(cc1OC)C1N=Cc3cc4c(cc3C1CC2)OCO4", "note": "(stereo unspecified)", "melting point": "208 to 210"}
{"molecule": "CC(C)(C#N)c1cc(C#N)cc(Cn2cncn2)c1", "melting point": "90 to 92"}
{"molecule": "O=c1n(-c2ccccc2)nc2c3c(nc(Cl)n12)CCCC3", "melting point": "205 to 207"}
{"molecule": "COc1ccc(N2CCN(Cc3n[nH]c4c(I)cccc34)CC2)cc1", "melting point": "185 to 186"}
{"molecule": "CCCCCCCCNC(=O)c1ccc(O)c(O)c1", "melting point": "118 to 120"}
{"molecule": "Cc1nnc2n1-c1sc(C#CCn3c4c(c5ccccc53)CCCC4)cc1C(c1ccccc1Cl)=NC2", "melting point": "164 to 166"}
{"molecule": "Cn1c(C(N)=O)c(-c2ccc(F)cc2)c2ncccc2c1=O", "melting point": "300 to 301"}
{"molecule": "CN1CCCNC1=Nc1ccccc1N1CCOCC1", "melting point": "138 to 139"}
{"molecule": "N#Cc1ccc2nc3c(c(=O)n2c1)SCC3", "melting point": "261 to 263"}
{"molecule": "CC1(C)Oc2ccc(Cl)cc2C12NC(=O)NC2=O", "note": "(stereo unspecified)", "melting point": "228 to 229"}
{"molecule": "Brc1cc2nc(NC3=NCCN3)[nH]c2cc1Br", "melting point": "261 to 267"}
{"molecule": "Oc1cccc(-c2c3ccccc3c(Br)c3sc4ccccc4c23)c1", "melting point": "110 to 111"}
{"molecule": "CS(=O)(=O)c1ccc(-c2[nH]nc(C(=O)CCCO[N+](=O)[O-])c2C2CCCCC2)cc1", "melting point": "122 to 124"}
{"molecule": "Cc1cc(OCC(=O)O)c(C(C)C)cc1SCc1sc(-c2ccc(C(F)(F)F)cc2)nc1C", "melting point": "168 to 171"}
{"molecule": "CCCN(CCC)Cc1nc(-c2ncn3c2CN(C)C(=O)c2sccc2-3)no1", "melting point": "128 to 130"}
{"molecule": "Cc1cc2sccc2c(N)n1", "melting point": 136}
{"molecule": "COc1ccc2c(n1)c(CC[N+](=O)[O-])c1n2Cc2ccccc2-1", "melting point": "127 to 128"}
{"molecule": "Cc1c(NC(=O)c2ccc(CC(=O)C3CC3)cc2)ccc2cc(CN3CCCC3)cnc12", "melting point": "200 to 201"}
{"molecule": "Cc1c2c(nn1C)c(N)nc1ccccc12", "melting point": "> 250"}
{"molecule": "CC(C)(C)c1coc(N)c1C#N", "melting point": 86}
{"molecule": "CC(NC(=O)c1c[nH]c2ncc(-c3nn(CC(O)CO)c4cc(Cl)ccc34)nc12)C(=O)N1CC(C#N)C1", "note": "(stereo unspecified)", "melting point": "165 to 180"}
{"molecule": "CCC(Nc1ncnc2[nH]cnc12)c1oc2cccc(F)c2c(=O)c1-c1ccccc1", "note": "(stereo unspecified)", "melting point": "210 to 212"}
{"molecule": "NC(=O)c1cccc(Oc2ncccc2C(=O)NCc2ccccc2Cl)c1", "melting point": "153 to 155"}
{"molecule": "CN(C)CCC1=Cc2ccccc2N(C)c2ccc(Cl)cc21", "melting point": 82}
{"molecule": "CC(=Cc1ccccc1)c1ccc2c(c1)C(C)(C)CCC2(C)C", "melting point": "83 to 85"}
{"molecule": "CCOC(=O)C(Cc1ccccc1)NC(=O)N(N(CCCl)S(C)(=O)=O)S(C)(=O)=O", "note": "(stereo unspecified)", "melting point": "106 to 107"}
{"molecule": "CC1(C)CCC(C)(C)c2cc(NCc3ccc(C(=O)O)cc3)ccc21", "melting point": "225 to 231"}
{"molecule": "Cn1ccnc1Sc1ccc(Nc2c(C#N)cnc3cc(/C=C/CCOC4CCCCO4)ccc23)cc1Cl", "note": "(stereo unspecified)", "melting point": "217 to 220"}
{"molecule": "CC(=O)NC(C(=O)O)C1c2ccccc2CCc2ccccc21", "note": "(stereo unspecified)", "melting point": "220 to 223"}
{"molecule": "O=C(c1cnoc1)N1CCCCC1", "melting point": "78 to 81"}
{"molecule": "CCCc1nc2c(N)nc3cc(OCCN4CCOCC4)ccc3c2s1", "melting point": "122 to 125"}
{"molecule": "COC(=O)C1=C(N)C(CCCCC(=O)O)SC1", "note": "(stereo unspecified)", "melting point": "98 to 102"}
{"molecule": "COCCOc1ccc2cc3ccccc3cc2c1C=O", "melting point": "114 to 117"}
{"molecule": "CCC(=O)Nc1ccc(C=CC(=O)O)cc1", "melting point": 243}
{"molecule": "Clc1ccc(COC(CCCn2ccnc2)c2ccc(Cl)cc2Cl)c(Cl)c1", "note": "(stereo unspecified)", "melting point": 108}
{"molecule": "COc1ccc(C2CC(=O)Nc3ccccc3C(=O)C2)cc1", "note": "(stereo unspecified)", "melting point": "138 to 140"}
{"molecule": "CCOC(=O)c1nc[nH]c1-c1ccccc1", "melting point": "203 to 205"}
{"molecule": "COc1ccc2c(=O)ccn(CCN3CCC(NC(=O)OC(C)(C)C)CC3)c2c1", "melting point": 207}
{"molecule": "COC(=O)c1cc(Cl)c(Cl)c(-c2cc(C)no2)c1C", "melting point": "76 to 77"}
{"molecule": "COCCOc1cc2ncc(C#N)c(Nc3ccc4cn[nH]c4c3)c2cc1OCCOC", "melting point": "105 to 110"}
{"molecule": "CCOC(=O)c1cc(N)ccc1OC(C)=O", "melting point": "82.5 to 83"}
{"molecule": "C=CC(=O)NC(C)(C)C(=O)NCC(OC)OC", "melting point": "80 to 82"}
